Assay results reported in patent US20070128217A1 (priority 2003, published 2007).

Legend:
[1] = tested on: antibodies in sera from SARS patients (sera 1a, 1b, 2, 6, 37, 62, London, SARS-yellow, SARS-green); type: binding, human; set-up: Binding of serum 6 to linear peptides of protein X1 of SARS-CoV Urbani / Binding of serum 37 to linear peptides of protein X1 of SARS-CoV Urbani / Binding of serum 6 to looped/cyclic peptide (PEPSCAN-ELISA) / Binding of serum 37 to looped/cyclic peptide (PEPSCAN-ELISA) / Binding of serum 37 to looped/cyclic peptides of protein X1 of SARS-CoV Urbani / Binding of serum 6 to linear peptides of protein X2 / Binding of serum 37 to linear peptides of protein X2 / Binding of serum 37 to looped/cyclic peptides of protein X2 of SARS-CoV Urbani / Binding of serum 6 to linear peptides of protein M of SARS-CoV Urbani / Binding of serum 37 to linear peptides of protein M of SARS-CoV Urbani / Binding of serum 6 to looped/cyclic peptides of protein M of SARS-CoV Urbani / Binding of serum 37 to looped/cyclic peptides of protein M of SARS-CoV Urbani / Binding of serum 6 to linear peptides of protein X3 of SARS-CoV Urbani / Binding of serum 37 to linear peptides of protein X3 of SARS-CoV Urbani / Binding of serum 37 to looped/cyclic peptides of protein X3 of SARS-CoV Urbani / Binding of serum 6 to linear peptides of protein X4 of SARS-CoV Urbani / Binding of serum 37 to linear peptides of protein X4 of SARS-CoV Urbani / Binding of serum 37 to looped/cyclic peptides of protein X4 of SARS-CoV Urbani / Binding of serum 6 to linear peptides of protein X5 of SARS-CoV Urbani / Binding of serum 37 to linear peptides of protein X5 of SARS-CoV Urbani / Binding of serum 37 to looped/cyclic peptides of protein X5 of SARS-CoV Urbani / Binding of serum 6 to linear peptides of protein N of SARS-CoV Urbani / Binding of serum 37 to linear peptides of protein N of SARS-CoV Urbani / Binding of serum 6 to linear peptide (PEPSCAN-ELISA) / Binding of serum 1a to looped/cyclic peptides of protein N of SARS-CoV Urbani / Binding of serum 1b to looped/cyclic peptides of protein N of SARS-CoV Urbani / Binding of serum 2 to looped/cyclic peptides of protein N of SARS-CoV Urbani / Binding of serum 6 to looped/cyclic peptides of protein N of SARS-CoV Urbani / Binding of serum 37 to looped/cyclic peptides of protein N of SARS-CoV Urbani / Binding of serum 62 to looped/cyclic peptides of protein N of SARS-CoV Urbani / Binding of serum London to looped/cyclic peptides of protein N of SARS-CoV Urbani / Binding of serum SARS-green to looped/cyclic peptides of protein N of SARS-CoV Urbani: unit not given here
[2] = tested on: control sera (pooled serum of ten healthy LUMC hospital workers; commercial negative donor pooled serum from the Dutch bloodbank); type: binding, human; set-up: Binding of Control serum LUMC to linear peptides / Binding of Control serum Blood-bank to linear peptides / Binding of Control serum LUMC to looped peptides / Binding of Control Serum Blood-Bank to Looped peptides / Binding of Control serum LUMC to linear peptides of the protein M of SARS-CoV Urbani / Binding of Control serum Blood-bank to linear peptides of the protein M of SARS-CoV Urbani / Binding of Control serum LUMC to looped peptides of the protein M of SARS-CoV Urbani / Binding of Control Serum Blood-Bank to Looped peptides of the protein M of SARS-CoV Urbani: unit not given here
[3] = tested on: recombinant human anti-SARS-CoV antibody 03-018; type: binding; set-up: Binding of antibody 03-018 to linear peptides of the N protein of SARS-CoV Urbani / Binding of antibody 03-018 to looped/cyclic peptides of the N protein of SARS-CoV Urbani: unit not given here
[4] = tested on: rabbit serum obtained by immunizing a rabbit with the SARS-CoV strain Frankfurt 1; type: binding; set-up: Binding of a rabbit serum to linear peptides / Binding of a rabbit serum to looped peptides / Rabbit serum linear peptides / Rabbit serum looped peptides / Binding of a rabbit serum to linear peptides of protein N of SARS-CoV Urbani (Rabbit serum linear peptides) / Binding of a rabbit serum to looped/cyclic peptides of protein N of SARS-CoV Urbani (Rabbit serum looped peptides): unit not given here
[5] = biological target: SARS-CoV preparation (Frankfurt 1 strain) (SARS-CoV strain Frankfurt 1)

Molecule: FYAEGSRGGSQASSR
- Binding of serum 1a to linear peptide (PEPSCAN-ELISA) [1]: 0.3
- Binding of serum 1a to looped/cyclic peptides of protein N of SARS-CoV Urbani [1]: 0.3
- Binding of serum 1b to linear peptide (PEPSCAN-ELISA) [1]: 0.2
- Binding of serum 1b to looped/cyclic peptides of protein N of SARS-CoV Urbani [1]: 0.2
- Binding of serum 2 to linear peptide (PEPSCAN-ELISA) [1]: 0.2
- Binding of serum 2 to looped/cyclic peptides of protein N of SARS-CoV Urbani [1]: 0.4
- Binding of serum 6 to linear peptide (PEPSCAN-ELISA) [1]: 0.3
- Binding of serum 6 to looped/cyclic peptides of protein N of SARS-CoV Urbani [1]: 0.3
- Binding of serum 37 to linear peptide (PEPSCAN-ELISA) [1]: 0.7
- Binding of serum 37 to looped/cyclic peptides of protein N of SARS-CoV Urbani [1]: 0.6
- Binding of serum 62 to linear peptide (PEPSCAN-ELISA) [1]: 0.8
- Binding of serum 62 to looped/cyclic peptides of protein N of SARS-CoV Urbani [1]: 0.6
- Binding of serum London to linear peptide (PEPSCAN-ELISA) [1]: 0.5
- Binding of serum London to looped/cyclic peptides of protein N of SARS-CoV Urbani [1]: 0.4
- Binding of serum SARS-green to linear peptide (PEPSCAN-ELISA) [1]: 0.4
- Binding of serum SARS-green to looped/cyclic peptides of protein N of SARS-CoV Urbani [1]: 0.4
- Binding of serum SARS-yellow to linear peptide (PEPSCAN-ELISA) [1]: 0.6
- Binding of serum SARS-yellow to looped/cyclic peptides of protein N of SARS-CoV Urbani [1]: 0.3
- Binding of Control Serum Blood-Bank to Looped peptides [2]: 0.6
- Binding of Control serum Blood-bank to linear peptides [2]: 0.8
- Binding of Control serum LUMC to linear peptides [2]: 0.7
- Binding of Control serum LUMC to looped peptides [2]: 0.8
- Binding of antibody 03-018 to linear peptides of the N protein of SARS-CoV Urbani [3]: 0.1
- Binding of antibody 03-018 to looped/cyclic peptides of the N protein of SARS-CoV Urbani [3]: 0.1
- Binding of a rabbit serum to linear peptides of protein N of SARS-CoV Urbani (Rabbit serum linear peptides) [4]: 0.3
- Binding of a rabbit serum to looped/cyclic peptides of protein N of SARS-CoV Urbani (Rabbit serum looped peptides) [4]: 0.4

Molecule: QGTDYKHWPQIAQFA
- Binding of serum 1a to linear peptides of protein N of SARS-CoV Urbani [1]: 0.3
- Binding of serum 1a to looped/cyclic peptides of protein N of SARS-CoV Urbani [1]: 0.4
- Binding of serum 1b to linear peptides of protein N of SARS-CoV Urbani [1]: 0.2
- Binding of serum 1b to looped/cyclic peptides of protein N of SARS-CoV Urbani [1]: 0.3
- Binding of serum 2 to linear peptides of protein N of SARS-CoV Urbani [1]: 0.2
- Binding of serum 2 to looped/cyclic peptides of protein N of SARS-CoV Urbani [1]: 0.4
- Binding of serum 6 to linear peptides of protein N of SARS-CoV Urbani [1]: 0.2
- Binding of serum 6 to looped/cyclic peptides of protein N of SARS-CoV Urbani [1]: 0.3
- Binding of serum 37 to linear peptides of protein N of SARS-CoV Urbani [1]: 0.8
- Binding of serum 37 to looped/cyclic peptides of protein N of SARS-CoV Urbani [1]: 0.6
- Binding of serum 62 to linear peptides of protein N of SARS-CoV Urbani [1]: 0.8
- Binding of serum 62 to looped/cyclic peptides of protein N of SARS-CoV Urbani [1]: 0.6
- Binding of serum London to linear peptides of protein N of SARS-CoV Urbani [1]: 0.7
- Binding of serum London to looped/cyclic peptides of protein N of SARS-CoV Urbani [1]: 0.5
- Binding of serum SARS-green to linear peptides of protein N of SARS-CoV Urbani [1]: 0.2
- Binding of serum SARS-green to looped/cyclic peptides of protein N of SARS-CoV Urbani [1]: 0.3
- Binding of serum SARS-yellow to linear peptides of protein N of SARS-CoV Urbani [1]: 0.7
- Binding of serum SARS-yellow to looped/cyclic peptides of protein N of SARS-CoV Urbani [1]: 0.7
- Control Serum Blood-Bank Looped peptides [2]: 0.6
- Control serum Blood-bank linear peptides [2]: 0.8
- Control serum LUMC linear peptides [2]: 0.6
- Control serum LUMC looped peptides [2]: 0.7
- Binding of antibody 03-018 to linear peptides of the N protein of SARS-CoV Urbani [3]: 0.1
- Binding of antibody 03-018 to looped/cyclic peptides of the N protein of SARS-CoV Urbani [3]: 0.2
- Binding of a rabbit serum to linear peptides of protein N of SARS-CoV Urbani (Rabbit serum linear peptides) [4]: 0.2
- Binding of a rabbit serum to looped/cyclic peptides of protein N of SARS-CoV Urbani (Rabbit serum looped peptides) [4]: 0.3

B1: SC03-012 (scFv)
scFv: AMAQVQLVQSGAEVKKPGASVKVSCKASGYTFTSYGISWVRQAPGQGLEWMGWISAYNGNTNYAQKLQGRVTMTTDTSTSTAYMELSSLRSDDTAVYYCARMFRKSSFDSWGQGTLVTVSRGGGGSGGGGSGGGGSSELTQDPAVSVALGQTVRITCQGDSLRSYYASWYQQKPGQAPVLVIYGKNNRPSGIPDRFSGSSSGNTASLTITGAQAEDEADYYCNSRDSSGNHVVFGGGTKLTVLGAAA
- OD492nm [5]: 0.495 OD492nm
